Assay results reported in patent publication US20250197403A1, “HETEROARYL COMPOUNDS FOR TREATMENT OF COMPLEMENT FACTOR D MEDIATED DISORDERS” (Achillion Pharmaceuticals, Inc., priority 2020, published 2025).

Target: Human Factor D (Homo sapiens (Human), UniProt P00746)
Test: Human Factor D Assay
Assay type: biochemical
Conditions: Human Factor D 80 nM, substrate Z-L-Lys-SBzl, assay according to Example 3
Method in brief: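 Serum-purified factor D (80 nM final) preincubated with compound 5 min at room temperature in 50 mM Tris, 1M NaCl, pH 7.5. Z-L-Lys-SBzl substrate and DTNB added at 100 μM each; A405 read every 30 s for 30 min. IC50 from nonlinear regression of reaction rates versus compound concentration.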

Chain of Human Factor D (P00746 26-253): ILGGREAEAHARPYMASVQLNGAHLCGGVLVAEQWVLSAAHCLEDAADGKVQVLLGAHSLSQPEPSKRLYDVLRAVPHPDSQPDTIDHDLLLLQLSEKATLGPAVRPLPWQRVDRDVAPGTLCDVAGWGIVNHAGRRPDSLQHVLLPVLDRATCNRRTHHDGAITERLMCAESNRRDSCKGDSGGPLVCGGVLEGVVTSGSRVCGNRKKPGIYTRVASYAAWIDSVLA

SMILES | IC50
CC(=O)c1cn(CC(=O)N2[C@H](C(=O)Nc3nc(C(F)(F)F)cnc3C)C[C@@]3(C)C[C@@H]23)c2c(C)cc(-c3cnc4cc(C)nn4c3)cc12 [Compound 60, (1R,3S,5R)-2-(2-(3-acetyl-7-methyl-5-(2-methylpyr-azolo[1,5-a]pyrimidin-6-yl)-1H-indol-1-yl)acetyl)-5-methyl-N-(3-methyl-6-(trifluoromethyl)pyrazin-2-yl)-2-azabicyclo[3.1.0] hexane-3-carboxamide] | < 1 µM
COCc1ccc(C(F)(F)F)nc1NC(=O)[C@@H]1[C@@H]2C[C@@H]2CN1C(=O)Cn1cc(C(C)=O)c2cc(-c3cnc4cc(C)nn4c3)cc(C)c21 [Compound 7, (1R,2S,5S)-3-(2-(3-acetyl-7-methyl-5-(2-methylpyr-azolo[1,5-a]pyrimidin-6-yl)-1H-indol-1-yl)acetyl)-N-(3-(methoxymethyl)-6-(trifluoromethyl)pyridin-2-yl)-3-azabicyclo[3.1.0] hexane-2-carboxamide] | < 1 µM
CC(=O)c1cn(CC(=O)N2[C@H](C(=O)Nc3nc(Br)ccc3C)C[C@@]3(C)C[C@@H]23)c2c(C)c(F)c(-c3cnc4cc(C)nn4c3)cc12 [Compound 50, (1R,3S,5R)-2-(2-(3-acetyl-6-fluoro-7-methyl-5-(2-methylpyrazolo[1,5-a]pyr-imidin-6-yl)-1H-indol-1-yl)acetyl)-N-(6-bromo-3-methylpyridin-2-yl)-5-methyl-2-zabicyclo[3.1.0] hexane-3-carboxamide] | < 1 µM
CC(=O)c1cn(CC(=O)N2[C@H](C(=O)N[C@@H](C)C(F)=C(C)C)C[C@@]3(C)C[C@@H]23)c2c(C)cc(-c3cnc(C)nc3)cc12 [Compound 31, (1R,3S,5R)-2-(2-(3-acetyl-7-methyl-5-(2-methylpyr-imidin-5-yl)-1H-indol-1-yl)acetyl)-N-((S)-3-fluoro-4-methylpent-3-en-2-yl)-5-methyl-2-azabicyclo[3.1.0] hexane-3-carboxamide] | < 1 µM
CC(=O)c1cn(CC(=O)N2[C@H](C(=O)Nc3nc(C(F)(F)F)ccc3C#N)C[C@@]3(C)C[C@@H]23)c2c(C)nc(-c3cnc4cc(C)nn4c3)cc12 [Compound 23, (1R,3S,5R)-2-(2-(3-acetyl-7-methyl-5-(2-methylpyr-azolo[1,5-a]pyrimidin-6-yl)-1H-pyrrolo[2,3-c]pyr-idin-1-yl)acetyl)-N-(3-cyano-6-(trifluoromethyl)-pyridin-2-yl)-5-methyl-2-azabicyclo[3.1.0]hexane-3-carboxamide] | < 1 µM
CC(=O)c1cn(CC(=O)N2C[C@@](F)(CF)C[C@H]2C(=O)Nc2nc(C(F)(F)F)ccc2C)c2c(C)cc(-c3cnc4cc(C)nn4c3)cc12 [Compound 10, (2S,4R)-1-(2-(3-acetyl-7-methyl-5-(2-methylpyr-azolo[1,5-a]pyrimidin-6-yl)-1H-indol-1-yl)acetyl)-4-fluoro-4-(fluoromethyl)-N-(3-methyl-6-(trifluoro-methyl)pyridin-2-yl)pyr-rolidine-2-carboxamide] | < 1 µM
CC(=O)c1cn(CC(=O)N2[C@H](C(=O)Nc3nc(Br)ccc3Cl)C[C@@]3(C)C[C@@H]23)c2c(C)cc(-c3cnc4cc(C)nn4c3)cc12 [Compound 47, (1R,3S,5R)-2-(2-(3-acetyl-7-methyl-5-(2-methylpyr-azolo[1,5-a]pyrimidin-6-yl)-1H-indol-1-yl)acetyl)-N-(6-bromo-3-chloropyr-idin-2-yl)-5-methyl-2-aza-bicyclo[3.1.0]hexane-3-carboxamide] | < 1 µM
CC(=O)c1cn(CC(=O)N2C[C@H]3C[C@H]3[C@H]2C(=O)N[C@@H](C)C(F)=C(C)C)c2c(C)cc(-c3cnc4cc(C)nn4c3)cc12 [Compound 38, (1R,2S,5S)-3-(2-(3-acetyl-7-methyl-5-(2-methylpyr-azolo[1,5-a]pyrimidin-6-yl)-1H-indol-1-yl)acetyl)-N-((S)-3-fluoro-4-methyl-pent-3-en-2-yl)-3-azabi-cyclo[3.1.0]hexane-2-car-boxamide] | < 1 µM
CC(=O)c1cn(CC(=O)N2C[C@@](F)(CF)C[C@H]2C(=O)Nc2nc(C(F)(F)F)ccc2C)c2c(C)cc(-c3cnc(C)nc3)cc12 [Compound 61, (2S,4R)-1-(2-(3-acetyl-7-methyl-5-(2-methylpyrim-idin-5-yl)-1H-indol-1-yl)-acetyl)-4-fluoro-4-(fluoro-methyl)-N-(3-methyl-6-(trifluoromethyl)pyridin-2-yl)pyrrolidine-2-carbox-amide] | < 1 µM
CC(=O)c1cn(CC(=O)N2[C@H](C(=O)Nc3nc(Br)ccc3C3CC3)C[C@@]3(C)C[C@@H]23)c2c(C)cc(-c3cnc4cc(C)nn4c3)cc12 [Compound 8, (1R,3S,5R)-2-(2-(3-acetyl-7-methyl-5-(2-methylpyr-azolo[1,5-a]pyrimidin-6-yl)-1H-indol-1-yl)acetyl)-N-(6-bromo-3-cycloprop-ylpyridin-2-yl)-5-methyl-2-azabicyclo[3.1.0]hexane-3-carboxamide] | > 10 µM
